Test results: patent publication US6908919B2, “Substituted polycyclic aryl and heteroaryl pyrazinones useful for selective inhibition of the coagulation cascade” (Pharmacia Corporation, priority 1999, dated 2005)

Tests used:
[1] = molecular target: T1, recombinant soluble tissue factor and recombinant human factor VIIa (TF-VIIa) (Homo sapiens, UniProt P08709); test: TF-VIIa Assay; type: biochemical; conditions: for IC50: read-out: IC50 TF-VIIa; for inhibition at 30 µM: 1 h, at 30 µM inhibitor
T1 construct: conversion of coagulation factor VII to VIIa by Xa; purchased American Diagnostica, Greenwich Conn; host or cells: VIIa purchased; soluble TF made in house in E. coli
T1 sequence (P08709 61-212 limits assumed): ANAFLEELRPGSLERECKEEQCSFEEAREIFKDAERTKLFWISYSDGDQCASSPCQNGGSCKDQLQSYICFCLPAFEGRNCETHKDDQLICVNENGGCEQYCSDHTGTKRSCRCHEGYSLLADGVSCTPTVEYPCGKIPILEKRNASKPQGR
T1 sequence (P08709 213-466 limits assumed): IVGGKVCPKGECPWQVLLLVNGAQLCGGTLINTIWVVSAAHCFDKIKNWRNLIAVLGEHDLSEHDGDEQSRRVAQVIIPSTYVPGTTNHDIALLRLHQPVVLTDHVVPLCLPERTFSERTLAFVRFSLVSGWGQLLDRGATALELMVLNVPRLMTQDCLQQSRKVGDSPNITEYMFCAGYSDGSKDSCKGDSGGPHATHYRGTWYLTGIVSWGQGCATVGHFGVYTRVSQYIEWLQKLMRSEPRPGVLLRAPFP
T1 sequence (P13726 33-251 partner limits assumed): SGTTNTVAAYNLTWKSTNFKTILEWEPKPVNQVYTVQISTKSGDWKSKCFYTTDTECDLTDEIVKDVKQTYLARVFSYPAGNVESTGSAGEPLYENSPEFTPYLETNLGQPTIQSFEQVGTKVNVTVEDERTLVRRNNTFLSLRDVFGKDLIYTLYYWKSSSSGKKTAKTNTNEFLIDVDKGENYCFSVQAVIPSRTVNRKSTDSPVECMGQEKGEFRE

[2] = molecular target: Human thrombin (Homo sapiens, UniProt P00734)
[3] = molecular target: Human factor Xa (Homo sapiens, UniProt P00742); test: Xa Assay; type: biochemical; design: purchased Enzyme Research Laboratories, South Bend Ind; conditions: for % Inhibition Factor Xa (30 µM): at 30 µM inhibitor
Sequence of Human factor Xa (P00742 41-179 limits assumed): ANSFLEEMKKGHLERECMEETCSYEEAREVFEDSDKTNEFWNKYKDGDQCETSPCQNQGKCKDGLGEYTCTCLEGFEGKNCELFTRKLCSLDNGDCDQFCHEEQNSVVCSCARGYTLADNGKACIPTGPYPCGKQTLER
Sequence of Human factor Xa (P00742 235-488 limits assumed): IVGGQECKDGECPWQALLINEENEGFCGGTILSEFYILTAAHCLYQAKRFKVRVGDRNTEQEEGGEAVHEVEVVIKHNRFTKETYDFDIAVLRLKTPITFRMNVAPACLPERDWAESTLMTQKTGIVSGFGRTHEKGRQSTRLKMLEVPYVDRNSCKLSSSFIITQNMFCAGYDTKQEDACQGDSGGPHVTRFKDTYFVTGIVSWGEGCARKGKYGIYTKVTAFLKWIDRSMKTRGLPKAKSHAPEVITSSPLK

SMILES | IC50 [1] [nM] | % Inhibition Thrombin II (30 µM) [2] [%] | % Inhibition Factor Xa (30 µM) [3] [%] | IC50 [3] [nM] | inhibition at 30 µM [1] [%]
N=C(N)c1ccc(CNC(=O)Cn2c(-c3ccccc3N)cnc(NC3CCC3)c2=O)cc1 [Example 116] | 1200 | 27 | 12 |  | 
N=C(N)c1ccc(CNC(=O)Cn2c(-c3cc(N)cc(C(=O)O)c3)cnc(NC3CCC3)c2=O)cc1 [Example 118] | 52 | 3 |  | 52300 | 
Nc1ccc(CNC(=O)Cn2c(-c3cccc(N)c3)c(Cl)nc(NC3CCC3)c2=O)cc1 [Example 158] |  | 6 |  | > 30000 | 10
N=C(N)c1ccc(CNC(=O)Cn2c(-c3cc(N)cc(N)c3)cnc(NC3CCC3)c2=O)cc1 [Example 119] | 10 | 45 | 26 |  | 
COC(=O)c1cc(N)cc(-c2c(Cl)nc(NC3CCC3)c(=O)n2CC(=O)NCc2ccc(C(=N)N)cc2)c1 [Example 127] | 31 | 23 | 27 |  | 
COC(=O)c1cc(N)cc(-c2cnc(NC3CCC3)c(=O)n2CC(=O)NCc2ccc(C(=N)N)cc2)c1 [Example 117] | 33 | 21 | 18 |  | 
N=C(NC(=O)OCc1ccccc1)c1ccc(CNC(=O)Cn2c(-c3cccc(N)c3)c(Cl)nc(NC3CCC3)c2=O)cc1 [Example 151] | 230 | 29 | 17 |  | 
CC(C)Nc1nc(Cl)c(-c2cccc(N)c2)n(CC(=O)NCc2ccc(C(N)=S)cc2)c1=O [Example 156] |  | 5 | 7 |  | 27
CC(C)Nc1nc(Cl)c(-c2cccc(N)c2)n(CC(=O)Nc2ccc(S(=O)(=O)NC(=N)N)cc2)c1=O [Example 155] |  | 2 | 11 |  | 1
CC(C)Nc1nc(Cl)c(-c2cc(N)ccc2SCC(=O)O)n(CC(=O)NCc2ccc(C(=N)N)cc2)c1=O [Example 110] | 50 | 20 | 15 |  | 

The next lines start with the values.

IC50 [1] [nM] | % Inhibition Thrombin II (30 µM) [2] [%] | % Inhibition Factor Xa (30 µM) [3] [%] | IC50 [3] [nM] | inhibition at 30 µM [1] [%] | SMILES
63000 | 5 | 2 |  |  | CN(C)CCNC(=N)c1ccc(CNC(=O)Cn2c(-c3cccc(N)c3)c(Cl)nc(NC3CCC3)c2=O)cc1 [Example 166]
 | 5 | 2 |  | 24 | COCC/N=C(\NCCOC)c1ccc(CNC(=O)Cn2c(-c3cccc(N)c3)c(Cl)nc(NC3CCC3)c2=O)cc1 [Example 164]
63000 | 5 | 4 |  |  | CN(C)CC/N=C(\NCCN(C)C)c1ccc(CNC(=O)Cn2c(-c3cccc(N)c3)c(Cl)nc(NC3CCC3)c2=O)cc1 [Example 165]
88400 | 7 |  |  |  | CC(C)NC(=N)c1ccc(CNC(=O)Cn2c(-c3cccc(N)c3)c(Cl)nc(NC3CCC3)c2=O)cc1 [Example 161]
40000 | 4 |  |  |  | COCCNC(=N)c1ccc(CNC(=O)Cn2c(-c3cccc(N)c3)c(Cl)nc(NC3CCC3)c2=O)cc1 [Example 163]
18000 | 9 | 7 |  |  | N=C(NCc1ccccc1)c1ccc(CNC(=O)Cn2c(-c3cccc(N)c3)c(Cl)nc(NC3CCC3)c2=O)cc1 [Example 160]
